# Experimental data taken from the Bradley open melting point set (2014).
# “And” between values parts separate entries of the source, which are not always exact repeats. Equal entries are not always repeated. Structures can show the parent of a compound that is named as a salt.
row,Structure (SMILES),melting point
1,O=S(=O)(O)c1ccccc1 [benzenesulfonic acid],48 °C
2,ClC(c1ccccc1)c1ccccc1 [benzhydryl chloride],19 °C
3,c1ccc2c(c1)OCCOCCOCCOCCO2 [benzo-15-crown-5],80 °C
4,OCc1cc2ccccc2s1 [benzo[b]thiophene-2-methanol],100 °C
5,CCOC(=O)c1ccc(N)cc1 [benzocaine],92 °C
6,O=C(O)c1ccccc1 [benzoic acid],122 °C
7,O=C(c1ccccc1)C(O)c1ccccc1 (stereo not given) [benzoin] [listing 1 of 2 here],135 °C
8,O=C(c1ccccc1)C(O)c1ccccc1 (stereo not given) [benzoin] [listing 2 of 2 here],134 °C
9,N#Cc1ccc2ncsc2c1 [benzothiazole-6-carbonitrile],138 °C
10,CC(=O)CC(=O)c1ccccc1 [benzoylacetone],59 °C
11,CC(=O)OCc1ccccc1 [benzyl acetate],-51 °C
12,OCc1ccccc1 [benzyl alcohol],-15 °C
13,O=C(OCc1ccccc1)c1ccccc1 [benzyl benzoate],19 °C
14,SCc1ccccc1 [benzyl mercaptan],-29 °C and -29.2 °C
15,CC(=O)OCc1ccccc1 [benzyl_acetate],-51 °C
16,O=C(OCc1ccccc1)c1ccccc1 [benzyl_benzoate],19 °C
17,COCc1ccccc1 [benzyl_methyl_ether],-52 °C
18,NCc1ccccc1 [benzylamine],10 °C
19,"O=[N+]([O-])/C=C/c1cccc([N+](=O)[O-])c1 [beta,3-dinitrostyrene]",126 °C
20,"O=[N+]([O-])/C=C/c1ccc([N+](=O)[O-])cc1 [beta,4-dinitrostyrene]",204 °C
21,CC(C)(Oc1ccc(CCNC(=O)c2ccc(Cl)cc2)cc1)C(=O)O [bezafibrate],186 °C
22,OB(O)c1ccccc1-c1ccccc1 [biphenyl-2-boronic acid],179 °C
23,OB(O)c1ccc(-c2ccccc2)cc1 [biphenyl-4-boronic acid],243 °C
24,O=Cc1ccc(-c2ccccc2)cc1 [biphenyl-4-carboxaldehyde],59 °C
25,NC(=O)c1ccc(-c2ccccc2)cc1 [biphenyl-4-carboxamide],228 °C
26,ClCCOCCCl [bis(2-chloroethyl) ether],-50 °C
27,CC1(C)COB(B2OCC(C)(C)CO2)OC1 [bis(neopentyl glycolato)diboron],183 °C
28,Fc1c(F)c(F)c(P(c2ccccc2)c2c(F)c(F)c(F)c(F)c2F)c(F)c1F [bis(pentafluorophenyl)phenylphosphine],62 °C

row,Structure (SMILES),melting point
1,C[Si](C)(C)OS(=O)(=O)O[Si](C)(C)C [bis(trimethylsilyl) sulfate],46 °C
2,CCCCC(CC)COC(=O)c1ccccc1C(=O)OCC(CC)CCCC (stereo not given) [bis-2-ethylhexyl_phthalate],-50 °C
3,Brc1ccc(Oc2ccc(Br)cc2)cc1 [bis-p-bromophenyl_ether],60 °C
4,CC(C)(C)OC(=O)N[C@@H](Cc1ccccc1)C(=O)O [boc-phenylalanine],87 °C
5,Brc1ccccc1 [bromobenzene],-31 °C
6,ClC(Cl)Br [bromodichloromethane],-55 °C
7,CCBr [bromoethane],-119 °C
8,BrC(Br)Br [bromoform],9 °C
9,O=C(O)C(=O)CBr [bromopyruvic acid],78 °C
10,CCCCOc1ccc(CC(=O)NO)cc1 [bufexamac],153 °C
11,O=C(NCc1ccccc1)OCCO [buramate],40 °C
12,CS(=O)(=O)OCCCCOS(C)(=O)=O [busulfan],116 °C
13,C1O[C@@H]1[C@H]1CO1 [butadiene diepoxide],-19 °C
14,C=C(Br)CC1(C(C)CC)C(=O)NC(=O)NC1=O (stereo not given) [butallylonal],132 °C
15,CCCCOC(=O)c1ccc(N)cc1 [butyl 4-aminobenzoate],58 °C
16,CCCCOC(=O)CCC [butyl butyrate],-92 °C (3×) and -91.5 °C (2×)
17,CCCCOC(=O)c1ccc(N)cc1 [butyl p-aminobenzoate],58 °C
18,CCCCC#N [butyl_cyanide],-96 °C
19,CCCCOc1ccccc1 [butyl_phenyl_ether],-19 °C
20,CCCCC1CCCCC1 [butylcyclohexane],-75 °C
21,CCCC(N)=O [butyramide],116 °C
22,CCCC(=O)OC(=O)CCC [butyric anhydride],-75 °C
23,CCCC(=O)c1ccccc1 [butyrophenone],12 °C
24,Cn1c(=O)c2c(ncn2C)n(C)c1=O [caffeine] [listing 1 of 2 here],238 °C (2×) and 235 °C (2×)
25,Cn1c(=O)c2c(ncn2C)n(C)c1=O [caffeine] [listing 2 of 2 here],238 °C
26,C=C1[C@@H]2CC[C@@H](C2)C1(C)C [camphene],35 °C
27,CC12CCC(CC1=O)C2(C)C (stereo not given) [camphor],177 °C
